Where two headings read alike, the source gives them in different places.

Series [1] concerns the target T1, JAK1 (Homo sapiens (Human), UniProt P23458). In words: JAK1 Ki determination assay (polyGT, 33P filter plate). The class given is biochemical. The settings on record: Lineweaver-Burk; polyGT substrate, 33P readout.
Experimental: For the determination of Ki, different amounts of inhibitor were mixed with the enzyme and the enzymatic reaction was followed as a function of ATP concentration. The Ki was determined by means of double reciprocal plotting of Km vs compound concentration (Lineweaver-Burk plot). JAK1 (Invitrogen, PV4774) was used at a final concentration of 500 ng/ml. […] Measurement of incorporated phosphate into the substrate polyGT was done by loading the samples on a filter plate (using a harvester, Perkin Elmer) and subsequent washing. Incorporated ^33P in polyGT is measured in a Topcount scintillation counter after addition of scintillation liquid to the filter plates (Perkin Elmer).
Series [2] has as its target T1, JAK1. In words: JAK1 Ki determination assay (Ulight-JAK-1 peptide). The settings on record: Lineweaver-Burk; Ulight-JAK-1 (Tyr1023) peptide, alternative protocol. The class given is biochemical.
Experimental: Alternatively, for the determination of Ki, different amounts of inhibitor were mixed with the enzyme and the enzymatic reaction was followed as a function of ATP concentration. The Ki was determined by means of double reciprocal plotting of Km vs compound concentration (Lineweaver-Burk plot). 1 ng of JAK1 (Invitrogen, PV4774) was used in the assay. The substrate was 50 nM Ulight-JAK-1 ([MUT]) Peptide (Perkin Elmer, TRF0121) The reaction was performed in 25 mM MOPS pH 6.8, 0.01%, 2 mM DTT, 5 mM MgCl2 Brij-35 with varying concentrations of ATP and compound. Phosphorylated substrate was measured using an Eu-labeled anti-phosphotyrosine antibody PT66 (Perkin Elmer, AD0068). Readout was performed on the envision (Perkin Elmer) with excitation at 320 nm and emission followed at 615 nm and 665 nm.
In series [3] the test system is JAK1 dependent pathway (IFNα induced pSTAT1) in human whole blood. In words: Whole blood assay, IFNα stimulation, Phospho-STAT1 ELISA. The class given is cell-based. Particulars: for IC50: Homo sapiens, 6 blood donors, ± SEM, read-out: pIC50 for inhibiting the INFα induced increase of pSTAT1 levels (converted). The procedure:
The pH of the buffer was 7.3.
Proteinase inhibitors were added to the buffer before use.
The stock solution was stored at −20° C.
Human blood was collected in heparinized tubes. The blood was divided in aliquots of 392 μL.
The samples were incubated on ice for 15 min.
The cellular extracts were thawed on ice. […] The strips were incubated overnight at 4° C.
Absorbance was measured at 450 nm.

Series [4] is described as follows: Microsomal stability, rat. It counts as in vitro ADME. Particulars: rat liver microsomes, 3 μM compound, 37° C. The procedure:
A 10 mM stock solution of compound in DMSO was diluted 1000 fold in a 182 mM phosphate buffer pH7.4 in a 96 deep well plate (Greiner, Cat no. 780285) and pre-incubated at 37° C.
40 μL of deionised water was added to a well of a polypropylene Matrix 2D barcode labelled storage tube (Thermo Scientific) and pre-incubated at 37° C.
A Glucose-6-phophate-dehydrogenase (G6PDH) working stock solution was prepared in 182 mM phosphate buffer pH7.4 and placed on ice before use. A co-factor containing MgCl2, glucose-6-phosphate and NADP+ was prepared in deionised water and placed on ice before use. […]
These plates were sealed with sealing mats (MA96RD-04S) of www.kinesis.co.uk and samples were measured at room temperature on LCMS (ZQ 1525 from Waters) under optimized conditions using Quanoptimize to determine the appropriate mass of the parent molecule.
The samples were analyzed on LCMS with a flow rate of 1 mL/min. […]
Peak area from the parent compound at time 0 was considered to be 100% remaining. The percentage remaining after 1 hour incubation was calculated from time 0 and was calculated as the percentage remaining. […]
The data on microsomal stability are expressed as a percentage of the total amount of compound remaining after 60 minutes.

T1 sequence (P23458 866-1154): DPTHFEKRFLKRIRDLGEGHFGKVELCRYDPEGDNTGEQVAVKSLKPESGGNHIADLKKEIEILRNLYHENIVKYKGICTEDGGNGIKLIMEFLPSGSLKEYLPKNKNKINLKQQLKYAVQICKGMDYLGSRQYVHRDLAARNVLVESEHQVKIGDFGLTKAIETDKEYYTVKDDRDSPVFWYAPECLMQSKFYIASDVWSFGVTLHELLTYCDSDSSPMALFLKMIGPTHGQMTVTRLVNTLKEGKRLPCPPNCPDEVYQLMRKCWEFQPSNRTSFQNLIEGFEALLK

The Ki is a dissociation constant, usually derived from enzyme kinetics or from competition with a known ligand. High values mean weaker binding, low ones tighter binding. On to `CC1(C)CN(C(=O)c2ccc(-c3cccc4nc(NC(=O)C5CC5)nn34)cc2)C1` [Compound 1, Cyclopropanecarboxylic acid{5-[4-(3,3-dimethyl-azetidine-1-carbonyl)-phenyl]-[1,2,4]triazolo[1,5-a]pyridin-2-yl}-amide], for which the figures for the Ki at JAK1 [1] and at JAK1 [2] were 6.9 nM and 5.6 nM, respectively. For the same molecule, the IC50 in series [3] (additional data analysis protocol (R2 > 0.8, hill slope < 3)) was 617 nM; in series [3] (human whole blood), 479 nM. Also, the “selectivity for the JAK1 pathway versus the JAK2 pathway” value in series [3] (IFNα pSTAT1 vs GM-CSF IL-8, human whole blood) was 28 fold; in series [3] (additional data analysis protocol, IFNα pSTAT1 vs GM-CSF IL-8) it was 17.6 fold. In series [4], the “Microsomal stability, percentage of compound remaining after 60 minutes, Rat” value was 76-100%.
